Measurements taken from patent publication US20180135134A1, “TARGETED SELECTION OF PATIENTS FOR TREATMENT WITH CORTISTATIN DERIVATIVES” (President and Fellows of Harvard College, priority 2015, published 2018).

Experiments:
SK-N-F1 = assay: Soft agar growth assay (Alamar Blue); details: Neuroblastoma, 100 nM cortistatin A
Method: (§1) For the 62 cell lines 96 well suspension cell culture plates were prepared. 100 μL of the soft agar bottom layer (0.6% final concentration in complete medium) was poured and left to solidify. 50 μL of the soft agar top layer (0.4% final concentration) containing the corresponding cells and cell number were then added on top, solidified and incubated at 37° C., 10% CO2. After the soft agar had solidified, the test items were added at indicated final concentrations into the inner wells of the plate. Subsequently, the assay was incubated in cell culture incubators for 8 to 14 days. Finally, the assay was developed using Alamar Blue and upon 1-5 h of incubation at 37° C. fluorescence intensity was determined (excitation: 560 nm; emission: 590 nm). As low control, cells were treated with 1E-05M Staurosporine (6fold values). As high control, cells were treated with 0.1% DMSO (solvent control, 6 fold values).
(§2) Raw data were converted into percent soft agar growth relative to high controls (solvent 0.1% DMSO) and low controls (1E-05M Staurosporine), which were set to 100% and 0%, respectively.

[1] = system: RUNX1 target gene signatures; assay: Gene expression and gene set enrichment analysis (GSEA) in SET-2 cells; format: cell-based, human; details: 4 h 25 nM CA
Method: Leukemia cells were plated (12-well) in triplicate at 500,000-800,000 cells per ml and incubated in the presence of vehicle (0.1% DMSO) or CA (25 nM 3 h for K562, MOLM-14 and MV4;11; 10 nM 24 h for MOLM-14; 25 nM 4 h for SET-2, n=3 for each cell line). Cells were then washed twice with cold PBS, and snap frozen. RNA was isolated (RNeasy Plus Microkit, Qiagen or TRIzol, Life Technologies), processed, and, for K562, MOLM-14 and MV4;11, hybridized to the Human U133 Plus 2.0 microarray (Affymetrix). Microarrays were processed with Bioconductor packages affyQCReport for quality control and affy for background correction, summarization, and normalization using rma. […] SET-2 and HCT 116 gene expression was measured by RNA-seq. […] Reads were aligned in two passes, first with rnaStar (v.2.3.0e) then with BWA (v.0.7.5a) for remaining unmapped reads, both using default parameters. Mapped reads were merged and counted using HTSeq (v.0.5.3p3) with -s yes -m intersection-strict. […] Samples were run in a single lane on an Illumina HiSEQ 2000 sequencer with a single read flow cell using 1×50-bp reads and a 6-cycle index read. Reads were mapped to the hgl9 reference genome using Tophat2 v.2.0.6 with custom settings including the setting of—library-type fr—firstrand to appropriately account for the stranded nature of the protocol. […]

SK.BR-3 = assay: Soft agar growth assay (Alamar Blue); details: Breast cancer, HER2 overexpression, 100 nM cortistatin A
Method: as §1, §2

CDK19 W105M = CDK19 W105M (Homo sapiens, UniProt Q9BWU1, W105M); details: expression of CDK19 W105M; FIG. 9
Chain of CDK19 W105M (Q9BWU1 whole entry W105M): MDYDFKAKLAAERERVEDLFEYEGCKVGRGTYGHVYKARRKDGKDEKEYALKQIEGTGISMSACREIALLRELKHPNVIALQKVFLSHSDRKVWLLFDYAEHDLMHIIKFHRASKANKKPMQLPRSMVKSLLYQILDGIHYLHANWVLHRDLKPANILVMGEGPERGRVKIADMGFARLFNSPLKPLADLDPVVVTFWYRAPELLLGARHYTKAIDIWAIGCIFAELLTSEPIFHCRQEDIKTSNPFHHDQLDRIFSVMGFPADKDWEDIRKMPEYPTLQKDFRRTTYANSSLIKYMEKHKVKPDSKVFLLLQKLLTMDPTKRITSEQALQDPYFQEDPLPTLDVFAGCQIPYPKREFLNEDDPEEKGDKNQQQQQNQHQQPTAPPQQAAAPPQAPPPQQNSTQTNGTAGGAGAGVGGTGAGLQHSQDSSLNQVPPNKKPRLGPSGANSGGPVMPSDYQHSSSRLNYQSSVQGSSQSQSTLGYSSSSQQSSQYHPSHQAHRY
Chain of CDK19 W105M (P24863 whole entry partner): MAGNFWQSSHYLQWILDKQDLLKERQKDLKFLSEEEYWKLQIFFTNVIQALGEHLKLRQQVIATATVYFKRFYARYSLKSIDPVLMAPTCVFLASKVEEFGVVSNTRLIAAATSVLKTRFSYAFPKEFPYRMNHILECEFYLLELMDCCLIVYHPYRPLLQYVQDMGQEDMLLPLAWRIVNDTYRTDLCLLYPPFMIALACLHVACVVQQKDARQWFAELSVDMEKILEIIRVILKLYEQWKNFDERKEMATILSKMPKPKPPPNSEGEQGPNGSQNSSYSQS
Method: 5′-Flag-tagged CDK8 and CDK19 were cloned from pBabe.puro.CDK8.flag (Addgene 19758) and F-CDK8L (Addgene 24762) into pLVX-EF1alpha-IRES-mCherry and pLVX-EF1alpha-IRES-ZsGreen (Clontech) and transformed into E. coli (One Shot Stbl3, Invitrogen). Point mutations were introduced by whole-plasmid PCR (QuikChange II XL Site-Directed Mutagenesis Kit, Agilent). pLVX lentiviral vectors were co-transfected with psPASx and pMD2.G (Addgene) in 293T cells. After 48 h, viral supernatants were collected and passed through a 0.45 m filter (Millipore). For transductions, 24-well plates were coated with 500 μl of 20 μg ml RetroNectin (Clontech) at 4° C. overnight, blocked with 2% BSA for 30 min, washed with PBS, and 300-500 μl of viral supernatant was added. The plates were centrifuged (2,000 g, 1.5 h) and then set in an incubator. After 2 h, viral supernatant was removed and 500 μl per well of 200,000 cells per ml was added. After 1-3 days, the cells were expanded and isolated by FACS.

SKNO-1 = assay: Cellular proliferation assay (CellTiter-Glo); details: Homo sapiens
Method: (§3) All suspension cells were plated (96-well) in triplicate at 5,000-30,000 cells per well for testing (n=3). Viable cell number was estimated after 3, 7 and 10 days by counting viable cells from one vehicle well, generating a cell dilution series, transferring 20 ml per well in duplicate to a 384-well plate, and performing a linear regression to CellTiter-Glo (Promega) response (SPECTRAmax M3, Molecular Devices). Cells from all wells were also fourfold diluted in media and transferred in duplicate for CellTiter-Glo measurement. On days 3 and 7, an equal volume for all wells was split-back with fresh media and compound, such that the resulting cell density for the vehicle well matched the initial seeding density. For days 7 and 10, estimated cell number represents the split-adjusted theoretical cell number. […] For growth assays with inhibitors, n=3 for each concentration with two independent experiments.

NB4 = assay: Cellular proliferation assay (CellTiter-Glo); details: Homo sapiens, NB-4
Method: (§4) All suspension cells were plated (96-well) in triplicate at 5,000-30,000 cells per well for testing (n=3). Viable cell number was estimated after 3, 7 and 10 days by counting viable cells from one vehicle well, generating a cell dilution series, transferring 20 ml per well in duplicate to a 384-well plate, and performing a linear regression to CellTiter-Glo (Promega) response (SPECTRAmax M3, Molecular Devices). Cells from all wells were also fourfold diluted in media and transferred in duplicate for CellTiter-Glo measurement. On days 3 and 7, an equal volume for all wells was split-back with fresh media and compound, such that the resulting cell density for the vehicle well matched the initial seeding density. For days 7 and 10, estimated cell number represents the split-adjusted theoretical cell number. HCT116 were plated (96-well) in triplicate at 250 cells per well. Cells were incubated in the presence of vehicle, 1 μM paclitaxel, or compound. On day 7, CellTiter-Blue (Promega) response was measured and values were normalized to vehicle (100% growth) and paclitaxel (0% growth). For growth assays with inhibitors, n=3 for each concentration with two independent experiments.

UKE-1 = assay: Cellular proliferation assay (CellTiter-Glo); details: Homo sapiens, UKE1
Method: as §3

NCI-N87 = assay: Soft agar growth assay (Alamar Blue); details: Gastric cancer, HER2 overexpression, 100 nM cortistatin A
Method: as §1, §2

Caki-2 = assay: Soft agar growth assay (Alamar Blue); details: clear cell renal cell carcinoma, Loss of function VHL mutation (VHL negative), 100 nM cortistatin A
Method: as §1, §2

REH = assay: Cellular proliferation assay (CellTiter-Glo); details: Homo sapiens
Method: as §3

CMK-86 = assay: Cellular proliferation assay (CellTiter-Glo); details: Homo sapiens
Method: as §3

SK-N-SH = assay: Soft agar growth assay (Alamar Blue); details: Neuroblastoma, 100 nM cortistatin A
Method: as §1, §2

MM1.S = assay: Cellular proliferation assay (CellTiter-Glo); details: Homo sapiens
Method: as §4

Q: `CN(C)[C@H]1C[C@@]23CC[C@@]4(O2)C(=CC[C@]2(C)[C@@H](c5ccc6ccncc6c5)CC[C@H]24)C=C3[C@@H](O)[C@@H]1O` [Cortistatin A, cortistatin A] was tested. Which “% growth rel. to vehicle” value (SK-N-F1) did it give?
A: 30%

Q: What about the NES ([1]; signature: GATA1/GATA2/RunX1/FLI1/SCL Binding Sites in Mks) of the same compound?
A: 2.03

Q: And the NES ([1]; signature: GATA1/SCL Binding Sites in Mks)?
A: 2.27

Q: And the “% growth rel. to vehicle” value (SK.BR-3)?
A: 22%

Q: What about the “growth of MOLM-14 cells expressing drug resistant allele” value (CDK19 W105M) of the same compound?
A: able to proliferate in the presence of cortistatin A

Q: And the GI50 (SKNO-1; SKNO-1)?
A: 1 nM

Q: And the GI50 (SKNO-1; SKNO-1, 240 h)?
A: 1 nM

Q: And the GI50 (NB4)?
A: > 1000 nM

Q: What about the GI50 (UKE-1) of the same compound?
A: 7 nM

Q: And the “% growth rel. to vehicle” value (NCI-N87)?
A: 26%

Q: What about the “% growth rel. to vehicle” value (Caki-2) of the same compound?
A: 18%

Q: And the GI50 (REH)?
A: 1 nM

Q: And the GI50 (CMK-86; CMK-86)?
A: 8 nM

Q: What about the GI50 (CMK-86; CMK-86, 240 h) of the same compound?
A: 8 nM

Q: And the “% growth rel. to vehicle” value (SK-N-SH)?
A: 29%

Q: And the GI50 (MM1.S)?
A: 5 nM
